Reference: PubChem BioAssay AID2060902 (Molecular Pharmacology Branch, DTP, NCI, 2025)

System: 485368-065-R3-J5-PDC spheroids with HUVEC/MSC, viability
Assay: Anticancer human tumor 485368-065-R3-J5-PDC patient-derived pancreatic carcinoma cell line growth inhibition [RAS]
Conditions: for IC50: curve of first compound; for viability, T/C: stronger effect = lower value
Description: RAS pathway inhibitors in Combinations in Complex Spheroids
A high-throughput screen of multi-cell type tumor spheroids was designed to identify active combinations of RAS pathway inhibitors and targeted small molecules. Complex spheroids include a stromal component modeled by human endothelial cells (HUVEC) and fibroblasts modeled by human mesenchymal stem cells (MSCs). The concentration ranges selected for each drug and investigational agent were based upon clinically achievable concentrations if the clinical Cmax of the agent was known.
Compounds. The drugs and investigational agents: abemaciclib (NSC768073), cobimetinib (NSC768068), divarasib (GDC6063, NSC841802), docetaxel (NSC628503), GDC-1971 (RLY-1971, NSC841576), gemcitabine (NSC613327), inavolisib (NSC800729), ipatasertib (NSC767898), KB-0742 (NSC834161), MRTX-1133 (NSC836407), osimertinib (NSC779217), RMC-4630 (NSC839698), RMC-6236 (NSC851965), RMC-6291 (NSC852671), Ro-3306 (NSC812927), sapanisertib (NSC764658), SN-38 (NSC673596), staurosporine (NSC755774), SY5609 (NSC837396), and tovorafenib (DAY101, NSC766906), were obtained from the National Cancer Institute (NCI) Developmental Therapeutics Program Chemical Repository. The FDA-approved anticancer drug set is available from the NCI Developmental Therapeutics Program. […] The stock solutions were prepared in dimethyl sulfoxide (DMSO, Sigma-Aldrich, St. Louis, MO, cat. D2650) at 800-fold the tested concentration and stored at -70 degrees C prior to their use. All drugs and investigational agents were tested over a range starting from a high concentration at or near the clinical Cmax and decreasing in half-log increments. If the clinical Cmax for an agent had not been determined, the highest concentration tested was 10 microM.
Cell Culture. All cells were maintained in an incubator at 37 degrees C and 5% CO2 with 95% humidity. The PDC lines were cultured according to standard operating procedures established by the NCI PDMR. All PDCs were thawed and cultured in Matrigel-coated flasks prepared with a working solution of 1X Ham's F-12 nutrient mix, without supplementation (Invitrogen, Waltham, MA, cat. 11765054), 100 U/mL penicillin-streptomycin (Invitrogen, cat. 15140122), and 2.5% Matrigel (Corning Inc., Corning, NY, cat. 354248) for the first three passages. The 362531-283-R-J2-PDC and 782815-120-R-J1-PDC lines were cultured in 6C/Colon 1B media, which includes advanced DMEM/F-12 (Thermo Fisher Scientific, cat. 12634028), 10 mM HEPES (Thermo Fisher Scientific, cat. 15630080), 1X GlutaMAX supplement (Thermo Fisher Scientific, cat. 35050061), 0.1 mg/mL primocin (InvivoGen, San Diego, CA, cat. ant-pm-2), 10% defined fetal bovine serum, heat inactivated (HyClone Laboratories Inc., Logan, UT, cat. SH30070.03HI), 50% L-WRN conditioned media (ATCC, cat. CRL-3276), 1.25 mM N-Acetyl-L-cysteine (Sigma-Aldrich, cat. A9165), 10 mM nicotinamide (Sigma-Aldrich, cat. N0636), 1X B-27 supplement (Thermo Fisher Scientific, cat. 17504044), 1X N-2 supplement (Thermo Fisher Scientific, cat. 17502048), 50 ng/mL human EGF (Thermo Fisher Scientific, cat. PHG0311), and 10 microM Y-27632 dihydrochloride (Tocris Bioscience, cat. 1254). The K12877-001-R-J1-PDC line was cultured in 6I media, which includes all 6C/Colon 1B media plus 10 ng/mL human FGF-10 (PeproTech, cat. 100-26), 1 ng/mL human FGF-2 (PeproTech, cat. 100-18B), 1 µM prostaglandin E2 (Tocris Bioscience, cat. 2296), […] hydrocortisone (Sigma-Aldrich, cat. H4001), and […] bovine insulin (Sigma-Aldrich, cat. I6634). The K86415-001-R-J1-PDC line was cultured in 6D media, which includes all 6C/Colon 1B media components minus the L-WRN conditioned media. The 485176-168-R4-J1-PDC was cultured in PANC media, which includes all 6C/Colon 1B media plus 100 ng/mL human FGF-10 (PeproTech, cat. 100-26), 500 nM SB-431542 (Selleckchem, cat. S1067), and 10 nM gastrin (Tocris Bioscience, cat. 3006). […]

[1] = second compound 0.0316 µM, first compound 0.0316 µM
[2] = second compound 0.0316 µM, first compound 0.1 µM
[3] = second compound 0.0316 µM, first compound 0.316 µM
[4] = second compound 0.0316 µM, first compound 1 µM
[5] = second compound 0.0316 µM, first compound 3.16 µM
[6] = second compound 0.0316 µM, first compound 10 µM
[7] = second compound 0.1 µM, first compound 0.0316 µM
[8] = second compound 0.1 µM, first compound 0.1 µM
[9] = second compound 0.1 µM, first compound 0.316 µM
[10] = second compound 0.1 µM, first compound 1 µM
[11] = second compound 0.1 µM, first compound 3.16 µM
[12] = second compound 0.1 µM, first compound 10 µM
[13] = second compound 0.316 µM, first compound 0.0316 µM
[14] = second compound 0.316 µM, first compound 0.1 µM
[15] = second compound 0.316 µM, first compound 0.316 µM
[16] = second compound 0.316 µM, first compound 1 µM
[17] = second compound 0.316 µM, first compound 3.16 µM
[18] = second compound 0.316 µM, first compound 10 µM
[19] = second compound 1 µM, first compound 0.0316 µM
[20] = second compound 1 µM, first compound 0.1 µM
[21] = second compound 1 µM, first compound 0.316 µM
[22] = second compound 1 µM, first compound 1 µM
[23] = second compound 1 µM, first compound 3.16 µM
[24] = second compound 1 µM, first compound 10 µM
[25] = second compound 3.16 µM, first compound 0.0316 µM
[26] = second compound 3.16 µM, first compound 0.1 µM
[27] = second compound 3.16 µM, first compound 0.316 µM
[28] = second compound 3.16 µM, first compound 1 µM
[29] = second compound 3.16 µM, first compound 3.16 µM
[30] = second compound 3.16 µM, first compound 10 µM
[31] = second compound 10 µM, first compound 0.0316 µM
[32] = second compound 10 µM, first compound 0.1 µM
[33] = second compound 10 µM, first compound 0.316 µM
[34] = second compound 10 µM, first compound 1 µM
[35] = second compound 10 µM, first compound 3.16 µM
[36] = second compound 10 µM, first compound 10 µM
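Note: spheroids exposed to agents for seven days before readout.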

SMILES: CC(C)NCC(C(=O)N1CCN(c2ncnc3c2C(C)CC3O)CC1)c1ccc(Cl)cc1 (stereo unspecified) + C#Cc1c(F)ccc2cc(O)cc(-c3ncc4c(N5CC6CCC(C5)N6)nc(OCC56CCCN5CC(F)C6)nc4c3F)c12
- IC50 (second compound 0.0316 µM): > 10000 nM
- IC50 (second compound 0.1 µM): > 10000 nM
- IC50 (second compound 0.316 µM): > 10000 nM
- IC50 (second compound 1 µM): 8240 nM
- IC50 (second compound 3.16 µM): 4340 nM
- IC50 (second compound 10 µM): < 31.6 nM
- viability, T/C [1]: 116%
- viability, T/C [2]: 98.7%
- viability, T/C [3]: 89.3%
- viability, T/C [4]: 93.5%
- viability, T/C [5]: 77.1%
- viability, T/C [6]: 57.8%
- viability, T/C [7]: 101%
- viability, T/C [8]: 88.8%
- viability, T/C [9]: 90.3%
- viability, T/C [10]: 83.3%
- viability, T/C [11]: 77.2%
- viability, T/C [12]: 57.9%
- viability, T/C [13]: 99%
- viability, T/C [14]: 101%
- viability, T/C [15]: 93.9%
- viability, T/C [16]: 87.9%
- viability, T/C [17]: 71.2%
- viability, T/C [18]: 55%
- viability, T/C [19]: 104%
- viability, T/C [20]: 106%
- viability, T/C [21]: 93.5%
- viability, T/C [22]: 74.9%
- viability, T/C [23]: 61.9%
- viability, T/C [24]: 47%
- viability, T/C [25]: 73.7%
- viability, T/C [26]: 74%
- viability, T/C [27]: 75.2%
- viability, T/C [28]: 70.8%
- viability, T/C [29]: 54.2%
- viability, T/C [30]: 38.9%
- viability, T/C [31]: 44.1%
- viability, T/C [32]: 39.4%
- viability, T/C [33]: 40.3%
- viability, T/C [34]: 35.4%
- viability, T/C [35]: 35.3%
- viability, T/C [36]: 26.9%

SMILES: CC(Nc1ccc2c(c1)OCCn1cc(N3C(=O)OCC3C(F)F)nc1-2)C(N)=O (stereo unspecified) + C#Cc1c(F)ccc2cc(O)cc(-c3ncc4c(N5CC6CCC(C5)N6)nc(OCC56CCCN5CC(F)C6)nc4c3F)c12
- IC50 (second compound 0.0316 µM): > 10000 nM
- IC50 (second compound 0.1 µM): > 10000 nM
- IC50 (second compound 0.316 µM): 9820 nM
- IC50 (second compound 1 µM): > 10000 nM
- IC50 (second compound 3.16 µM): 1610 nM
- IC50 (second compound 10 µM): < 31.6 nM
- viability, T/C [1]: 95.9%
- viability, T/C [2]: 93.4%
- viability, T/C [3]: 85.4%
- viability, T/C [4]: 80.1%
- viability, T/C [5]: 74.5%
- viability, T/C [6]: 51.9%
- viability, T/C [7]: 101%
- viability, T/C [8]: 90.3%
- viability, T/C [9]: 82.4%
- viability, T/C [10]: 91.2%
- viability, T/C [11]: 77.9%
- viability, T/C [12]: 57.2%
- viability, T/C [13]: 92.7%
- viability, T/C [14]: 93.5%
- viability, T/C [15]: 91.5%
- viability, T/C [16]: 85.7%
- viability, T/C [17]: 81.7%
- viability, T/C [18]: 48.8%
- viability, T/C [19]: 83.4%
- viability, T/C [20]: 85.8%
- viability, T/C [21]: 90.7%
- viability, T/C [22]: 72.6%
- viability, T/C [23]: 69.1%
- viability, T/C [24]: 51.5%
- viability, T/C [25]: 73.4%
- viability, T/C [26]: 56.2%
- viability, T/C [27]: 54.5%
- viability, T/C [28]: 60.5%
- viability, T/C [29]: 46.8%
- viability, T/C [30]: 32.8%
- viability, T/C [31]: 33.8%
- viability, T/C [32]: 31%
- viability, T/C [33]: 24.6%
- viability, T/C [34]: 25.9%
- viability, T/C [35]: 21%
- viability, T/C [36]: 18.6%

SMILES: O=C(c1ccc(F)c(F)c1Nc1ccc(I)cc1F)N1CC(O)([C@@H]2CCCCN2)C1 + C#Cc1c(F)ccc2cc(O)cc(-c3ncc4c(N5CC6CCC(C5)N6)nc(OCC56CCCN5CC(F)C6)nc4c3F)c12
- IC50 (second compound 0.0316 µM): 31.5 nM
- IC50 (second compound 0.1 µM): 33.7 nM
- IC50 (second compound 0.316 µM): 37.5 nM
- IC50 (second compound 1 µM): 26.3 nM
- IC50 (second compound 3.16 µM): 8.98 nM
- IC50 (second compound 10 µM): < 3.16 nM
- viability, T/C (second compound 0.0316 µM, first compound 0.00316 µM): 90.3%
- viability, T/C (second compound 0.0316 µM, first compound 0.01 µM): 65.9%
- viability, T/C [1]: 49.5%
- viability, T/C [2]: 31.9%
- viability, T/C [3]: 28.1%
- viability, T/C [4]: 8.9%
- viability, T/C (second compound 0.1 µM, first compound 0.00316 µM): 80.8%
- viability, T/C (second compound 0.1 µM, first compound 0.01 µM): 68.9%
- viability, T/C [7]: 50%
- viability, T/C [8]: 32.3%
- viability, T/C [9]: 26%
- viability, T/C [10]: 9.17%
- viability, T/C (second compound 0.316 µM, first compound 0.00316 µM): 91.1%
- viability, T/C (second compound 0.316 µM, first compound 0.01 µM): 73%
- viability, T/C [13]: 46.6%
- viability, T/C [14]: 39.4%
- viability, T/C [15]: 25.4%
- viability, T/C [16]: 9%
- viability, T/C (second compound 1 µM, first compound 0.00316 µM): 87.4%
- viability, T/C (second compound 1 µM, first compound 0.01 µM): 62%
- viability, T/C [19]: 48.6%
- viability, T/C [20]: 31.1%
- viability, T/C [21]: 22.5%
- viability, T/C [22]: 8.96%
- viability, T/C (second compound 3.16 µM, first compound 0.00316 µM): 58.8%
- viability, T/C (second compound 3.16 µM, first compound 0.01 µM): 50%
- viability, T/C [25]: 38.7%
- viability, T/C [26]: 24%
- viability, T/C [27]: 19.9%
- viability, T/C [28]: 5.77%
- viability, T/C (second compound 10 µM, first compound 0.00316 µM): 45.1%
- viability, T/C (second compound 10 µM, first compound 0.01 µM): 29.8%
- viability, T/C [31]: 26.5%
- viability, T/C [32]: 17.2%
- viability, T/C [33]: 11.2%
- viability, T/C [34]: 3.65%
